In patent US9220771B2, “Peptide for use in the treatment of breast cancer and/or bone metastases” (MERCK PATENT GMBH, priority 2010, dated 2015):

Legend:
[1] = test system: MDA-MB-231 breast cancer bone metastases; test: Experimental breast cancer bone metastases in nude rats: volumes of osteolytic lesions and soft tissue components by VCT and MRI; format: in vivo, nude rats (RNU strain); conditions: for mean relative volume of soft tissue components (STC), increase compared to initial value at day 30 / mean relative volume of osteolytic lesions (OL), increase compared to initial value at day 30: cilengitide 75 mg/kg i.p. five times per week from day 30; for mean relative volume of soft tissue components (STC), increase compared to initial value at day 30: MRI
Protocol: For this purpose, nude rats bearing established breast cancer bone metastases are treated with cilengitide, a small molecule inhibitor of αvβ3 and αvβ5 integrins (75 mg/kg, five days per week; n=12 rats) and compared to vehicle treated control rats (n=12). In a longitudinal study, conventional magnetic resonance imaging (MRI) and flat panel volumetric computed tomography (VCT) are used to assess the volume of the soft tissue tumor and osteolysis, respectively, and dynamic contrastenhanced (DCE-) MRI is performed to determine functional parameters of the tumor vasculature reflecting blood volume and blood vessel permeability.
Nude rats (RNU strain) are obtained from Harlan-Winkelmann GmbH (Borchen, Germany) at the age of six weeks and housed in a specific pathogen-free environment in a mini barrier system of the central animal facility. Animals are kept under controlled conditions (21±2° C. room temperature, 60% humidity, 12 h light-dark rhythm) and offered autoclaved food and water ad libitum. Sub-confluent MDAMB- 231 cells are harvested using 0.05% Trypsin-EDTA (Gibco®; Invitrogen, Karlsruhe, Germany) counted on a Neubauer's chamber and resuspended in RPMI-1640 to a final concentration of 10^5 cells in 200 μl. Rats are anesthetized using a mixture of nitrous oxide (1 l/min), oxygen (0.5 l/min) and isoflurane (1.5 vol. %). Arterial branches of the right hind leg are dissected and 10^5 cells injected into the superficial epigastric artery as described previously.^28 Bone metastases established and are observed exclusively in the femur, tibia and fibula of the right hind leg. 30 days after cancer cell transplantation, rats (n=24) are randomly divided into two groups, one group receiving the cyclic RGD-peptide inhibitor of αvβ3/αvβ5 integrins (cilengitide, EMD 121974^14, 17, 29; Merck, Darmstadt, Germany) intraperitoneally five times per week in isotonic saline (75 mg/kg; n=12 rats) and the other, sham-treated group, serving as a control (n=12 rats). The observation period of all animals is 55 days and no rat in the study dies ahead of schedule.
After the inoculation of cancer cells each rat is imaged at days 30, 35, 45 and 55 using (i) a flat-panel equipped volumetric computed tomograph (Volume CT, Siemens, Germany) and (ii) a 1.5T clinical magnetic resonance scanner (Symphony, Siemens, Erlangen, Germany) equipped with a home-built receive-transmit coil (cylindrical volume resonator with an inner diameter of 83 mm and a usable length of 120 mm). Prior to in vivo imaging with VCT and MRI, rats aree anesthetized with nitrous oxide, oxygen and isoflurane as described above.
VCT imaging is obtained using the following parameters: tube voltage 80 kV, tube current 50 mA, scan time 51 s, rotation speed 10 s, frames per second 120, matrix 512×512, and slice thickness 0.2 mm. Image reconstructions are performed using a modified FDK (Feldkamp Davis Kress) cone beam reconstruction algorithm (kernel H80a; Afra, Erlangen, Germany).
(§1) T2-weighted imaging is performed using a turbo spin echo sequence (orientation axial, TR 3240 ms, TE 81 ms, matrix 152×256, FOV 90×53.4 mm^2, slice thickness 1.5 mm, 3 averages, scan time 3 min 40 s). For dynamic contrast-enhanced MRI, a saturation recovery turbo flash sequence through the largest diameter of the tumor (orientation axial, TR 373 ms, TE 1.86 ms, matrix 192×144, FOV 130×97.5 mm, slice thickness 5 mm, measurements 512, averages 1, scan time 6 min 55 s) is used. After 20 s baseline, 0.1 mmol/kg Gd-DTPA (Magnevist; Bayer Schering Pharma, Berlin, Germany) is intravenously infused for a time period of 10 s.
Unenhanced VCT images and MRI-acquired T2-weighted images are analyzed using the Medical Imaging Interaction Toolkit (MITK, Heidelberg, Germany) to determine volumes of osteolytic lesions and soft tissue components, respectively. […]

[2] = test system: MDA-MB-231 breast cancer bone metastases; test: DCE-MRI of experimental breast cancer bone metastases (amplitude A, exchange rate constant kep); format: in vivo, nude rats (RNU strain); conditions: cilengitide 75 mg/kg
Protocol: as §1
Unenhanced VCT images and MRI-acquired T2-weighted images are analyzed using the Medical Imaging Interaction Toolkit (MITK, Heidelberg, Germany) to determine volumes of osteolytic lesions and soft tissue components, respectively. DCE-MRI acquired data is analyzed using the Dynalab workstation (Mevis Research, Bremen, Germany) according to the two-compartment model of Brix to determine the parameters amplitude A and exchange rate constant kep, as described.^23, 30 Briefly, the injected contrast media is distributed in both compartments (intravascular space and extravascular, interstitial space). The accumulation of contrast agent in these compartments over time is characterized by the amplitude A (associated with blood volume), whereas the exchange of contrast agent between the intravascular space and the interstitial space is characterized by the exchange rate constant kep (associated with vessel permeability). For determination of the respective values of the amplitude A and kep of bone metastases in our study, a region of interest is placed around the soft tissue component on color maps for A and kep, respectively, using the Dynalab workstation (Mevis Research, Bremen, Germany).
For each animal, volumes of the osteolysis and soft tissue component, amplitude A and exchange rate constant kep are plotted versus time after tumor cell inoculation (due to technical reasons one animal of the control group can not be evaluated for the amplitude A and kep). Normalization of the data to the corresponding initial value at day 30 for each animal is performed and changes are expressed in percent. For statistical comparisons of data from non-invasive imaging and histological analysis, the respective values are compared between the control and treatment groups using the two-sided Wilcoxon-Test; p-values <0.05 are considered significant.

[3] = test system: MDA-MB-231 breast cancer bone metastases; test: Histology / immunofluorescence of experimental breast cancer bone metastases; format: in vivo, nude rats (RNU strain); conditions: after 4 weeks treatment with cilengitide; control rats 8.8 μm; p<0.01
Protocol: At the end of the observation period lower limbs of each animal are amputated and muscular tissue removed. Bones with surrounding soft tissue tumors are stored in 70% ethanol and embedded in a methylmethacrylat-based compound (Technovit® 9100 NEU, Heraeus Kulzer, Hanau, Germany) according to the instructions of the manufacturer. 5 μm-thick sections are cut (Microm HM340e microtome; Thermo Scientific, Waltham, Mass.), mounted on SuperFrost Plus microscope slides and dried overnight at 60° C. Additional freshly removed soft tissue tumors are embedded in optimum cutting temperature compound (OCT, TissueTec, Sakura, Japan) and stored at −80° C. […] Mean positive area fractions of SMA and collagen IV (in percent) as well as mean vessel diameters (in μm) are determined from 4 representative animals of each group analyzing 10 fields of view chosen randomly from each rat using Analysis Software (cell^F; Olympus Soft Imaging Solutions, Münster, Germany). […]
For light microscopical analysis, sections are stained with Mayer's hematoxylin (Carl Roth, Karlsruhe, Germany) and eosin (Merck, Darmstadt, Germany), mounted using Eukitt mounting medium (O. Kindler, Freiburg, Germany) and analyzed using a microscope (DM LB; Leica, Wetzlar, Germany) equipped with a digital camera (DFC 320; Leica, Wetzlar, Germany). […]

[4] = test system: U251 human glioblastoma cells; test: Rat orthotopic glioblastoma model, radiotherapy and cilengitide scheduling, survival; format: in vivo, NIH rnu nude rats; conditions: t-4 and t-8 h groups, cilengitide 4 mg/kg + 25 Gy
Protocol: NIH rnu nude rats are anaesthetized, restrained, and injected intracerebrally 1 mm retro orbitally, 3 mm to the right of the bregma and at a depth of 2.5 mm with 5×10E5 U251 human glioblastoma cells suspended in 10 ul of culture medium, using a #2701 Hamilton syringe fitted with a 26 gauge needle, essentially as previously described (Engebraaten et al., 1999). After 14 days, cilengitide (4 mg/kg) is given as an intraperitoneal bolus in PBS, at various time (8 h, 4 h, 2 h, 1 h) prior to a single treatment with single, collimated, dorsal-ventral beam of 6 MV x-rays, so that 95-100% of the central axis dose of 25 Gy hit the tumor volume (Kim et al., 1999). Each of the 7 subsequent days the animals also received an identical i.p. bolus of cilengitide. The animals are maintained under ad libitum food and drink until they become moribund, or are sampled for tissue analysis (in the t-4 and t-8 h groups, where the animals are healthy past 230 days post tumor injection). A Kaplan-Meier survival curve is calculated and plotted (FIG. 7) from the raw data (Table 2). All animals in the RT monotherapy group died by 120 d.

[5] = test system: Patients With Newly Diagnosed Glioblastoma (GBM); test: Phase I/IIa trial of Cilengitide and temozolomide with concomitant radiotherapy; format: in vivo, human
Protocol: Purpose: To evaluate safety, toxicity, and efficacy of the combination of the cyclic RGD pentapeptide Cilengitide (=cyclo-(Arg-Gly-Asp-DPhe-NMe-Val)), an inhibitor of integrins αvβ3 and αvβ5, in addition to standard temozolomide (TMZ) and radiotherapy (RT).
Patients and methods: Fifty-two pts (PS 0-1: 92%, 2: 8%; median age 57 yrs) after biopsy (n=9/17%) or tumor resection (n=43/83%) were treated with standard TMZ/RT (Stupp et al. NEJM 2005). In addition Cilengitide (500 mg i.v., 2×/week) was started one week before TMZ/RT and given throughout for the duration of chemotherapy or until progression. Primary endpoint was progression free survival rate at 6 months (target: 65%). Patients were followed with MRI every 2 months. Histopathologic diagnosis and MRI imaging were independently reviewed, MGMT promotor methylation status was assessed in 45 (86.5%) pts.

[6] = test system: MDA-MB468 human breast tumour cells; test: Study 007: MDA-MB-468 orthotopic primary tumor growth; format: in vivo, female BALB/c nu/nu mice; conditions: all three dosing groups (75, 150 or 300 mg/kg), daily s.c.; Vehicle Control higher than 350 mm^3
Protocol: MDA-MB468 human breast tumour cells were orthotopically inoculated into the third mammary fat pad of female BALB/c nu/nu mice. The mice were randomised into groups when the tumors reached a size of approximately 40 mm^3.
The mice in each group received treatment with either Vehicle Control (Placebo) or EMD 121974 (75, 150 or 300 mg/kg) by daily subcutaneous injection. Body weight and tumour volume measurements were made for all mice three times per week.

[7] = test system: HER2-positive advanced BRCA; conditions: in combination with capecitabine, 2nd line; cited from earlier work
[8] = Cilengitide 500 mg i.v. 2x/week with TMZ/RT, of 52 patients

With CC(C)[C@H]1C(=O)N[C@@H](CCCN=C(N)N)C(=O)NCC(=O)N[C@@H](CC(=O)O)C(=O)N[C@H](Cc2ccccc2)C(=O)N1C [Cilengitide, cyclo-(Arg-Gly-Asp-DPhe-NMeVal)] the “mean relative volume of soft tissue components (STC), increase compared to initial value at day 30” value ([1]; day 35) was 2.2 fold, the “mean relative volume of osteolytic lesions (OL), increase compared to initial value at day 30” value ([1]; day 35, VCT) was 1.5 fold and the “mean relative volume of soft tissue components (STC), increase compared to initial value at day 30” value ([1]; day 45, p<0.05 vs control) was 4.9 fold. For the same compound, the “mean relative volume of osteolytic lesions (OL), increase compared to initial value at day 30” value ([1]; day 45, VCT, p<0.05 vs control) was 2.4 fold, the “mean relative volume of soft tissue components (STC), increase compared to initial value at day 30” value ([1]; day 55, p<0.01 vs control) was 6.3 fold and the “mean relative volume of osteolytic lesions (OL), increase compared to initial value at day 30” value ([1]; day 55, VCT, p<0.01 vs control) was 3.5 fold. For the same compound, the “rats showing new bone formation in the osteolytic lesion” value ([1]; treatment group (three of 12 rats), cilengitide 75 mg/kg, VCT, not seen in controls) was 25%, the “DCE-MRI amplitude A (associated with blood volume), mean relative value” ([2]; day 35, p>0.05 vs control) was 97 % of initial value and the “DCE-MRI exchange rate constant kep (associated with vessel permeability), mean relative value” ([2]; day 35, p>0.05 vs control) was 69 % of initial value. For the same compound, the “DCE-MRI amplitude A (associated with blood volume), mean relative value” ([2]; day 45, p<0.05 vs control) was 102 % of initial value, the “DCE-MRI exchange rate constant kep (associated with vessel permeability), mean relative value” ([2]; day 45, p>0.05 vs control) was 88 % of initial value and the “DCE-MRI amplitude A (associated with blood volume), mean relative value” ([2]; day 55, p<0.05 vs control) was 93 % of initial value. The “DCE-MRI exchange rate constant kep (associated with vessel permeability), mean relative value” ([2]; day 55, p<0.05 vs control) was 72 % of initial value, the “mean vessel diameter in bone metastases” value [3] was 6.6 μm and the “time animals are healthy post tumor injection” value [4] was > 230 days. The “treatment related non-hematologic grade 3 toxicities” value ([5]; Cilengitide 500 mg i.v. 2x/week with TMZ/RT, 3/52 patients) was 5.7%, the “grade 3 constitutional symptoms (asthenia, fatigue, anorexia)” value [5, 8] was 3 n and the “grade 3 deep venous thrombosis and pulmonary embolism” value [5, 8] was 1 n. The “grade 3 elevated liver function tests” value [5, 8] was 1 n, the “tolerability of the combination” value ([5]; Cilengitide and TMZ/RT) was “well tolerated” and the “tumour volume on day 60” value [6] was “below 200 mm^3”.

In the case of CS(=O)(=O)CCNCc1ccc(-c2ccc3ncnc(Nc4ccc(OCc5cccc(F)c5)c(Cl)c4)c3c2)o1 [Lapatinib], the “improvement of median time to progression compared to capecitabine alone” value [7] is given as 4 months.
